From a melting point compilation (Tetko et al.; mined from patent text by program, amines drawn as free bases though some values may be those of a salt)

| SMILES | melting point [°C] |
| --- | --- |
| COc1ccc2cc(S(=O)(=O)Cl)cc(OC)c2c1 | 134 |
| O=C(O)c1ccccc1Sc1cccc2c1C(=O)NC2=O | 289 to 290 |
| CCOC(=O)C1=NN(c2cccc(Cl)c2)C(c2ccccc2)CO1 (stereo unspecified) | 103 to 104 |
| Cc1oc(-c2ccco2)nc1COc1ccc(COc2nn(Cc3ccc(OCc4nc(-c5ccco5)oc4C)cc3)cc2CO)cc1 | 80 to 81 |
| CCn1ncc2c(OC)c3c(nc21)C(=O)c1ccccc1CC3 | 197 to 200 |
| c1cnc(NCCc2c[nH]cn2)cn1 | 200 to 202 |
| O=C(O)C1=Cc2cc(Cl)c(Oc3cccc(Cl)c3)cc2OC1C(F)(F)F (stereo unspecified) | 174 to 176 |
| CC(=O)Nc1ccc(C(=N)Nc2cc(NC(=O)/C=C/c3ccccc3C(F)(F)F)c(F)cc2F)cc1 | 180 to 185 |
| O=C1c2ccccc2-c2c1c1ccccc1c(=O)n2CCCCCNS(=O)(=O)c1ccc(Br)cc1 | 169 to 171 |
| COC(=O)c1c(C2=NC(C)(C(C)C)C(=O)N2)cccc1[N+](=O)[O-] (stereo unspecified) | 159 to 162 |
| COc1ccc(N2CCOCC2)c2sc(NC(=O)N3C[C@@H]4CC[C@H]3C4)nc12 | 149 |
| Cc1nc(C)c(C(C)(O)c2ccccc2)o1 (stereo unspecified) | 94.5 to 96 |
| CC(=O)Oc1ccc2cccc(O)c2n1 | 240 to 241 |
| O=C1C(=NOCCO)Oc2ccccc21 | 110 to 111 |
| CCOC(=O)c1n[nH]c(CC)c1Sc1cc(Cl)cc(Cl)c1 | 138 to 139 |
| O=C(O)CCNc1ccc(CNC(=O)C2Cc3ccccc3N2S(=O)(=O)c2ccc(-c3cccc(C(F)(F)F)c3)cc2)cc1 (stereo unspecified) | 82 |
| C1=COc2ccc3[nH]c4c(c3c2=C1)C=CN=CC=4 | > 177 |
| CCOC(=O)C1(C)C(=O)Nc2cc(N)ccc21 (stereo unspecified) | 248 |
| CCCCCCCOc1ccc(C(=O)CCC(=O)OCC)cc1 | 39.7 to 40.1 |
| O=C(c1cc(O)cc2cc(-c3ccc(O)cc3)oc12)C(F)(F)F | 215 to 216 |
| COc1ccc(C(=C/C=C/C(=O)Nc2cccc3cnccc23)c2ccc(OC)cc2)cc1 | 197 to 199 |
| CCCc1nnc(Cc2ccc(N)cc2)o1 | 60 to 61 |
| CCOC(=O)C(NC(=O)CNC=O)C(=O)OCC | 95 to 96 |
| CCc1c(Cl)nc(OCc2ccccc2)nc1OCc1ccccc1 | 53 to 54 |
| CCCCOc1cc(/C=C(\OCC)C(=O)O)ccc1OCCc1ccc(OS(C)(=O)=O)cc1 | 117 |
| CC(O)=C(C#N)C(=O)Nc1ccc(F)cc1 | 165 to 166 |

| SMILES | melting point [°C] |
| --- | --- |
| Clc1ccc(Nc2nc3ccccc3c3[nH]c(C4CCCC4)nc23)cc1Cl | 114 to 115 |
| COc1cc(N)ccc1C=NNC(=N)NN=Cc1ccc(N)cc1OC | 220 to 230 |
| O=C(c1ccnc(F)c1)N1CCC[C@H](c2nc(-c3ccc(F)cc3)no2)C1 | 93 to 95 |
| Nc1cnc2c(c1)CCCC2 | 97 to 98 |
| Nc1ccc(C(=O)NCC(=O)O)cc1F | 198 to 200 |
| CC(C)CCNc1ccccc1NCC12CC3CC(CC(C3)C1)C2 | 64 to 65 |
| CC(=O)c1cccc(C2=C(c3ccc(S(N)(=O)=O)cc3)OC(C)(C)C2=O)c1 | 217 to 218 |
| CCc1noc(C=C(N)c2ccccc2)c1C(=O)NC | 125 to 132 |
| CCCc1c(O)c(C(C)=O)cc(Cl)c1OCCCOc1ccc2ccc(OCC(=O)O)cc2c1C(C)=O | 132 to 134 |
| O=C(Cl)c1ccc(-c2nc(C(Cl)(Cl)Cl)nc(C(Cl)(Cl)Cl)n2)cc1 | 100 to 101 |
| COc1ccc(CC(=O)NC(NC(=NC#N)c2cccc3ncccc23)C(C)(C)C)cc1OC (stereo unspecified) | 203 to 205 |
| CCC1(COC(=O)c2cccc3ccccc23)COC1 | 62 |
| CCOC(=O)c1c(NCC(=O)OCCCC(=O)c2ccccc2)c2c(Cl)cc(Cl)cc2n1C(=O)OC(C)(C)C | 129 to 130 |
| CC(=O)CN1CCNC1=Nc1cc2c(cc1Br)OCCO2 | 98 to 100 |
| CN1C(=O)CC[C@]2(C)c3ccc(-c4nc5ccccc5s4)cc3CC[C@@H]12 | 207 to 212 |
| CCN(CC)Cc1nc2cc(OC)c(OC)cc2c(-c2ccc(OC)c(OC)c2)c1C(C)=O | 146 to 148 |
| COC(=O)c1oc2ccc(OC)cc2c1OCc1ccccc1 | 81 to 84 |
| Cc1c(Sc2cccnc2)sc2ccc(Br)cc12 | 86 to 87 |
| COc1ccc(C2C(C#N)=C(N)Oc3c2ccc2cccnc32)cc1OC (stereo unspecified) | 118 to 120 |
| O=C(N1CCC2(C=Cc3ccccc32)CC1)N1CCCc2ccccc21 | 130 to 133 |
| COc1cc(C(C)=O)ccc1-c1ccccc1F | 84 to 85 |
| Cn1ncc2c1-c1c(Oc3ncccn3)sc(C(=O)O)c1CC2 | 256 to 258 |
| O=C(O)COc1ccc(Br)cc1C(=O)NCc1ccc(Br)cc1F | 153 to 155 |
| O=C(O)c1cc2cc(F)ccc2n1Cc1ccncc1 | 282 to 283 |
| O=C1CC[C@](CO)(COCc2ccccc2)O1 | 78 |
| CC1CCN(c2ccc([N+](=O)[O-])cc2C(=O)c2ccccc2Cl)CC1 | 84 |

| SMILES | melting point [°C] |
| --- | --- |
| CCCCCCCCCCCCCCCCCCOc1ccc2c(c1OCCCCCCCCCCCCCCCCCC)C(=O)c1ccccc1C2=O | 100 to 107 |
| COCCOc1cc2ncnc(NC3=CC(=O)C(N4CCOCC4)=CC3=O)c2cc1OC | 239 to 243 |
| COc1cc(C=O)cc(OC)c1O[Si](C)(C)C(C)(C)C | 68 |
| Cc1cc2cc(C3CCN(C(=O)C4CC4)CC3)oc2cc1C | 80 to 83 |
| N=C(N)c1nc2c(s1)CCc1c-2sc2nc3ccccc3n12 | > 300 |
| ON=C1CCCCC12OCCO2 | 97 to 98 |
| COC(=O)CCCCC(C)C1CCC2C3CCC4CC(OC=O)CCC4(C)C3CC(OC=O)C12C (stereo unspecified) | 67 to 72 |
| NS(=O)(=O)c1ccccc1-c1cnco1 | 157 to 163 |
| NC(=O)CNC(=O)c1sc(Nc2ccccc2)c2c1CCc1cnoc1-2 | 213 to 214 |
| O=C(Nc1ncc(C(F)(F)F)o1)C1c2ccccc2Oc2ccccc21 | 218 |
| CC(=O)OC(C)c1cc2c(s1)C(=O)c1ccsc1C2=O (stereo unspecified) | 174 to 176 |
| Cc1cc(-n2nc(C(F)F)cc2-c2ccc(S(C)(=O)=O)cc2)ccc1Cl | 145 to 146 |
| CNC(=O)Nc1ccc(Oc2ccc3sncc3c2)c(C(F)(F)F)c1 | 138 |
| CC(C)=C1CCC2(C1)C(=O)C=C(OC(C)C)CC2C (stereo unspecified) | 77 to 77.5 |
| CCOC(=O)c1ccoc1Cn1c(NC2CCN(C(=O)OCC)CC2)nc2ccccc21 | 162 |
| Cc1cccc2c1CCN=C2c1ccc(Cl)cc1 | 66 to 67 |
| N#CCCNC(=O)c1cccc(-c2cccc3oc(Cc4ccc(F)c(Cl)c4)cc23)c1 | 130 to 131 |
| COC(=O)CC1=C(C)Cc2cc(F)c(OC)cc21 | 61 to 62 |
| CC(=O)C1C2=CCC3C(CCC4(C)C(O)C(O)CC34)C2(C)CCC1O (stereo unspecified) | 152 to 153 |
| COc1cc(-c2csc(C)n2)cc2oc(=O)c(C)c(C)c12 | 149 to 150 |
| Cc1c(Br)c(=O)n(C2CCCC2)c2nc(Nc3ccc(N4CCOCC4)nc3)ncc12 | 254 to 256 |
| C=CCOc1ccccc1OCC(O)CNCCOc1ccc(O)c(C(N)=O)c1 (stereo unspecified) | 147 to 148 |
| Cc1cccc(-c2[nH]c(C(C)(C)C)nc2-c2ccnc(-c3ccc(CN(C)C)cc3)c2)n1 | 187 |
| CCCCCCCCOc1cc(CBr)c(OCCCCCCCC)cc1CBr | 83 |
| O=C1CCC(c2ccccc2)(c2ccccc2)[C@@H]2CN(C(=O)Cc3c(F)cccc3F)C[C@H]12 (racemic) | 218 |
| CCc1cnn(CC(=O)O)c1OCCCc1cn(-c2ccc(C(F)(F)F)cn2)nc1C(C)C | 111 to 112 |

| SMILES | melting point [°C] |
| --- | --- |
| O=C1c2c(Br)cccc2-n2cnc(-c3noc(CCl)n3)c2[C@@H]2CCCN12 | 242 to 244 |
| CC(C)CC(NC(=O)CNc1ccc(Cl)cc1)C(=O)NCC#N (stereo unspecified) | 131 to 134 |
| CC1=C(C(=O)OCc2ccccc2)C2CCC(CCOC(=O)c3ccc(Br)cc3)N2C(=NC(=O)c2ccc(Br)cc2)N1 (stereo unspecified) | 175 to 176 |
| CC(=O)N1CCSc2cccc(C)c2C1 | 71 to 73 |
| CCCCCCCCCCCCCCN(C)c1ccc([N+](=O)[O-])cc1C(=O)O | 100 to 101 |
| O=C(c1ccc(F)cc1)N1CCCC(c2nc(-c3ccc(F)cc3)no2)C1 (stereo unspecified) | 118 to 122 |
| O=[N+]([O-])c1nccn1CCI | 79 to 82 |
| COC(=O)CCCC(=O)c1ccc2c(c1)CCO2 | 80 to 81 |
| CC(=O)OCCOc1ccc(C=Cc2ccc(S(C)(=O)=O)cc2)cc1 | 175 to 177 |
| COc1cc(CNC(=S)NC(COC(=O)C(C)(C)C)Cc2ccc(C(C)(C)C)cc2)ccc1OCCN (stereo unspecified) | 63 to 65 |
| CN(C(=O)C1CCC1)c1cccc(-c2ccnc3c(C#N)cnn23)c1 | 157 to 158 |
| CCCCCCCOc1cc2c(cc1C(C)=O)C(C)(C)CCS2 | 69 to 71 |
| CC1CNC(CC(c2ccccc2)c2ccccc2)=N1 (stereo unspecified) | 55 to 57 |
| CCCn1c(=O)c2[nH]c(C(C)=Cc3ccccc3)nc2n(CCC)c1=O | 194 to 196 |
| COc1ccc(S(=O)(=O)Nc2nc(-c3cccc4ccccc34)cs2)cc1 | 98 to 100 |
| NS(=O)(=O)Oc1cccc(I)c1 | 106 to 108 |
| CC(C)(C)OC(=O)N1C2CCC1CN(CC(O)COc1ccc(C#N)cc1)C2 (stereo unspecified) | 98 to 104 |
| Nc1ncnc2c1c(I)cn2C1CC(O)C(CO)O1 (stereo unspecified) | 194 |
| NC1=NN(c2cccc(C(F)(F)F)c2)CC1 | 104 to 107 |
| CSc1ccc(-c2nn(Cc3ccc(F)cc3F)c(=O)cc2-c2ccc(Cl)cc2)cc1 | 157 to 158 |
| CCOC(=O)CCOc1cccc2c1CCC2=O | 90 to 92 |
| O=C(N[C@H]1CCN(C(=O)c2cc(C(F)(F)F)cc(C(F)(F)F)c2)[C@H](Cc2ccc(Cl)cc2)C1)c1ccnc2ccccc12 | 204 to 207 |
| CC(C)OCCNc1ccc(C(=O)N2CCN(CCc3ccc(Cl)cc3)CC2)cc1 | 130 to 132 |
